According to ChEMBL document CHEMBL3400143, “Discovery and hit-to-lead optimization of 2,6-diaminopyrimidine inhibitors of interleukin-1 receptor-associated kinase 4” (Bioorg Med Chem Lett, 2015):
Calls of active or inactive are those of the source. The calls are words filed in the database; no cut-off is given here.

Assays:
[1] = target: BDNF/NT-3 growth factors receptor (Homo sapiens) (UniProt Q16620); assay: Inhibition of TRKB (unknown origin)
[2] = target: Mitogen-activated protein kinase kinase kinase kinase 4 (Homo sapiens) (UniProt O95819); assay: Inhibition of MAP4K4 (unknown origin)
Mitogen-activated protein kinase kinase kinase kinase 4 (Homo sapiens), sequence (O95819 2-1239 limits assumed): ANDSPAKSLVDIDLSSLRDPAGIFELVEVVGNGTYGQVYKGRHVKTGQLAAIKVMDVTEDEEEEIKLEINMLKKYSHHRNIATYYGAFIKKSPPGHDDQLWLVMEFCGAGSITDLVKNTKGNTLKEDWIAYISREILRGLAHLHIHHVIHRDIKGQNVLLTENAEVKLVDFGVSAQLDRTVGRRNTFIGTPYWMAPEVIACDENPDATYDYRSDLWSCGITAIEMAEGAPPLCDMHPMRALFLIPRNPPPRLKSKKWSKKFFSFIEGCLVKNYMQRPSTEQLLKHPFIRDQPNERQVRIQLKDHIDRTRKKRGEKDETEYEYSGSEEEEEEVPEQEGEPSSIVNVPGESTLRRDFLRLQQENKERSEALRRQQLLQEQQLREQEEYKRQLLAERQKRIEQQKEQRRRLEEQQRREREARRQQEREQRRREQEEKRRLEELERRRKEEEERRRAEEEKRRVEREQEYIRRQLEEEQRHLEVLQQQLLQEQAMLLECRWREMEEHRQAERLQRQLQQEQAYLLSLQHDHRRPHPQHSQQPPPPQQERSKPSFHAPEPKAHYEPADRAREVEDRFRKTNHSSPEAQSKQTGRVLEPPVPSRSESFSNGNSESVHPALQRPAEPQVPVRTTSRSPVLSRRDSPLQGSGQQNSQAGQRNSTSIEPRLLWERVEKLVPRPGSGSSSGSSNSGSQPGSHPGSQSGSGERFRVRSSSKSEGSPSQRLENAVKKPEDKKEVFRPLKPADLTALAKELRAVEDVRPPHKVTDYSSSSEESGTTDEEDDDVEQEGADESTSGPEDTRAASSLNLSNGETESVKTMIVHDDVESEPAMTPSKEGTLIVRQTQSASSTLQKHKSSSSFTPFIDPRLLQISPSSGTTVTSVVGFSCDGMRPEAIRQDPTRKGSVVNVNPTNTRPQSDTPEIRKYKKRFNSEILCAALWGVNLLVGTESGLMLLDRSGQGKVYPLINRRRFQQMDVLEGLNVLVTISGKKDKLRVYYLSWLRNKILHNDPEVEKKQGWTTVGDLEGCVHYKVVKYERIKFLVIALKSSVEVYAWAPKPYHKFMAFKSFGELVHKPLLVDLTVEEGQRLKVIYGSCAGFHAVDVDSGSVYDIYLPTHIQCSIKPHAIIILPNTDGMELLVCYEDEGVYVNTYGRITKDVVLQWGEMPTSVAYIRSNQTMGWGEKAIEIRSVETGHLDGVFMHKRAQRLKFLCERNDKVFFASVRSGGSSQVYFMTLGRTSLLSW

[3] = target: Dual specificity protein kinase CLK4 (Homo sapiens) (UniProt Q9HAZ1); assay: Inhibition of CLK4 (unknown origin)
Dual specificity protein kinase CLK4 (Homo sapiens), sequence (Q9HAZ1 whole entry, looked up): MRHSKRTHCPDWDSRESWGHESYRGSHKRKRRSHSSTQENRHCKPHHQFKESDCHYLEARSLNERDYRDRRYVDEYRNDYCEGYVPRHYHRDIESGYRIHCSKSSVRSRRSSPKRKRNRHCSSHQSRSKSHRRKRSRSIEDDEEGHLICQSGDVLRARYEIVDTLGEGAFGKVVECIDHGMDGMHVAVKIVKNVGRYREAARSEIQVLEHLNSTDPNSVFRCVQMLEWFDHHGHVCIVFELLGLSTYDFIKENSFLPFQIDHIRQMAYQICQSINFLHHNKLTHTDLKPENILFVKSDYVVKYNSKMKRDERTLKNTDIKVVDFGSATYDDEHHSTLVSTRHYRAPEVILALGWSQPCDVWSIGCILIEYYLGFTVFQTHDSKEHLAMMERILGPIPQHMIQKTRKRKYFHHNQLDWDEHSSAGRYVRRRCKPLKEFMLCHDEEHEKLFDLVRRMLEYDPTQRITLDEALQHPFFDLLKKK

[4] = target: T1, Interleukin-1 receptor-associated kinase 4 (Homo sapiens, UniProt Q9NWZ3); assay: Inhibition of N-terminal GST tagged human recombinant full-length IRAK4 expressed in Sf9 insect cells assessed as reduction in substrate phosphorylation using RP7030 peptide substrate and ATP incubated for 30 mins fluorescence polarization assay
T1 sequence (Q9NWZ3 whole entry): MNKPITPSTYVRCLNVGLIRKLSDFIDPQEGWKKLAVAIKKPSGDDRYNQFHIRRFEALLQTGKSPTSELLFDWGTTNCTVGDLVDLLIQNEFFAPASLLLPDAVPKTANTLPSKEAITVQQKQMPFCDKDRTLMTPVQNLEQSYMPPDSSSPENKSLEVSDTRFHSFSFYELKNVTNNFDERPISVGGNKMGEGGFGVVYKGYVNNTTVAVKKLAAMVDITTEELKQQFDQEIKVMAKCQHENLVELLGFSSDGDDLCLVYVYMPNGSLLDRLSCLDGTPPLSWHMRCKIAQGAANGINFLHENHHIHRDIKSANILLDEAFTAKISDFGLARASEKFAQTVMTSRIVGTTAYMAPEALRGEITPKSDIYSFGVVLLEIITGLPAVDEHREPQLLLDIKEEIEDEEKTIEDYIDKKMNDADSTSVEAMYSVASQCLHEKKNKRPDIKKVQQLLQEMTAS

[5] = target: Receptor-type tyrosine-protein kinase FLT3 (Homo sapiens) (UniProt P36888); assay: Inhibition of FLT3 (unknown origin)
Receptor-type tyrosine-protein kinase FLT3 (Homo sapiens), sequence (P36888 whole entry): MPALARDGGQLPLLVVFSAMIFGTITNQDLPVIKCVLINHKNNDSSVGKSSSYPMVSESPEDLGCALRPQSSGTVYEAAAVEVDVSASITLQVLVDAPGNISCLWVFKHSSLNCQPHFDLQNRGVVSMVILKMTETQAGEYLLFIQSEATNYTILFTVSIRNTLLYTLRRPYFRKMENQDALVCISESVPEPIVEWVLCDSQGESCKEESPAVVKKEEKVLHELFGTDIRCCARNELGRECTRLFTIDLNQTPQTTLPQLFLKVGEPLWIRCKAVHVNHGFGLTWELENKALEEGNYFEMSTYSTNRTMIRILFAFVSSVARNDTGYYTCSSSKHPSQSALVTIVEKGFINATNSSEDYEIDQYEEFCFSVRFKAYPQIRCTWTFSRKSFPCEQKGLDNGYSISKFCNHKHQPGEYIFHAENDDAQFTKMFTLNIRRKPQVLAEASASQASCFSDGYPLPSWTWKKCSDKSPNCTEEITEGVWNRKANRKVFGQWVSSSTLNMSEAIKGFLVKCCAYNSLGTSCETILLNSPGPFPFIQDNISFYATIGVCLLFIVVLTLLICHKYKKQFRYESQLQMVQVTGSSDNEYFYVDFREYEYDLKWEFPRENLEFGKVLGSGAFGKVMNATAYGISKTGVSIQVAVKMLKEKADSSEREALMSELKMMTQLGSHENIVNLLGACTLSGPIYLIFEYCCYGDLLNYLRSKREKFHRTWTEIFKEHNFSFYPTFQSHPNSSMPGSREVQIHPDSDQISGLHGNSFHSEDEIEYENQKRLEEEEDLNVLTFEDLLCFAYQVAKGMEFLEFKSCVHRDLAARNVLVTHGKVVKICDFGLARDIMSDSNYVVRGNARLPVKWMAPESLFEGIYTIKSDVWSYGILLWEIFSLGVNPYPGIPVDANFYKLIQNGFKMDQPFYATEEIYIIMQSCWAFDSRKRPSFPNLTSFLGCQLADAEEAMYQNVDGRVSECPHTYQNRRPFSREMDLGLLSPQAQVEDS

[6] = target: High affinity nerve growth factor receptor (Homo sapiens) (UniProt P04629); assay: Inhibition of TRKA (unknown origin)
High affinity nerve growth factor receptor (Homo sapiens), sequence (P04629 33-796 limits assumed): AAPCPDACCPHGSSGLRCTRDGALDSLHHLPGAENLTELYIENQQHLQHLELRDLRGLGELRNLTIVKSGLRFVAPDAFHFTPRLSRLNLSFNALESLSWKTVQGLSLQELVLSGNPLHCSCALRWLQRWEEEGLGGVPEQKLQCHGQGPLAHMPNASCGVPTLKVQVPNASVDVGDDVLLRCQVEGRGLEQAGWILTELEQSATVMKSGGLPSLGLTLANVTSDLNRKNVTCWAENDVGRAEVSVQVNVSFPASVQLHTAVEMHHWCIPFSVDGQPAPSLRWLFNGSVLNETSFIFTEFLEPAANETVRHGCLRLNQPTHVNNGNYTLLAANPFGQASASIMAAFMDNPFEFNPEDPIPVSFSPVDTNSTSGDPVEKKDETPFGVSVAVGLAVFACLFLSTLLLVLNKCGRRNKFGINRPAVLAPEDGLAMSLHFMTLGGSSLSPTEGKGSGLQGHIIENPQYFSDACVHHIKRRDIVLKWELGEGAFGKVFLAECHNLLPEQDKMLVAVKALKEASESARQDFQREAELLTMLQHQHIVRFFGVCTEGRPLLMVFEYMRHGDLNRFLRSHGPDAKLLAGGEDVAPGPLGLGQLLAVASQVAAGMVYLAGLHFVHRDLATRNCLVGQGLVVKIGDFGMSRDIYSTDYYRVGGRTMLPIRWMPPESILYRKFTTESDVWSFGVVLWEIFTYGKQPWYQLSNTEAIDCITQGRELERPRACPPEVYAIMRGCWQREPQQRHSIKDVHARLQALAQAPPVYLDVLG

[7] = target: NT-3 growth factor receptor (Homo sapiens) (UniProt Q16288); assay: Inhibition of TRKC (unknown origin)
NT-3 growth factor receptor (Homo sapiens), sequence (Q16288 32-839 limits assumed): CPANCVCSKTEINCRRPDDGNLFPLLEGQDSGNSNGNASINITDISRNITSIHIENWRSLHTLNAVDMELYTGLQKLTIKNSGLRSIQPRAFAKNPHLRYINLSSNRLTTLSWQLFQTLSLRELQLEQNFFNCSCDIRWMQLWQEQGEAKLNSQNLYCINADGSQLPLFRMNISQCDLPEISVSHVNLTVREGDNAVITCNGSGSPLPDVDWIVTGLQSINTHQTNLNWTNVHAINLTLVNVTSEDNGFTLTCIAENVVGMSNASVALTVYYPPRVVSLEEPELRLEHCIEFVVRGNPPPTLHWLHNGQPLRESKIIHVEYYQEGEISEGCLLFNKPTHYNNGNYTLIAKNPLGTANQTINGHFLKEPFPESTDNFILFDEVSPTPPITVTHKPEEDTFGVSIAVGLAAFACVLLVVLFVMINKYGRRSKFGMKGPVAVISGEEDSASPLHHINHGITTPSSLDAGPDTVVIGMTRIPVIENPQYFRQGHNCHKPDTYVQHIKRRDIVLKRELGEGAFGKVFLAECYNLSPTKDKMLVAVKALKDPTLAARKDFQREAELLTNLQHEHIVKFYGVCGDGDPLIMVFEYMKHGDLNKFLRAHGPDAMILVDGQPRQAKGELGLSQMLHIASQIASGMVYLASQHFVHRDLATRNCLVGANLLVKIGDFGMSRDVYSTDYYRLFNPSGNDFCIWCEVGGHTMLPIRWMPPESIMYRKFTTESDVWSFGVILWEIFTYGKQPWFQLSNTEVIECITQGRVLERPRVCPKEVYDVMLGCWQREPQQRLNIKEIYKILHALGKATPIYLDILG

BDNF/NT-3 growth factors receptor (Homo sapiens), sequence (Q16620 32-822 limits assumed): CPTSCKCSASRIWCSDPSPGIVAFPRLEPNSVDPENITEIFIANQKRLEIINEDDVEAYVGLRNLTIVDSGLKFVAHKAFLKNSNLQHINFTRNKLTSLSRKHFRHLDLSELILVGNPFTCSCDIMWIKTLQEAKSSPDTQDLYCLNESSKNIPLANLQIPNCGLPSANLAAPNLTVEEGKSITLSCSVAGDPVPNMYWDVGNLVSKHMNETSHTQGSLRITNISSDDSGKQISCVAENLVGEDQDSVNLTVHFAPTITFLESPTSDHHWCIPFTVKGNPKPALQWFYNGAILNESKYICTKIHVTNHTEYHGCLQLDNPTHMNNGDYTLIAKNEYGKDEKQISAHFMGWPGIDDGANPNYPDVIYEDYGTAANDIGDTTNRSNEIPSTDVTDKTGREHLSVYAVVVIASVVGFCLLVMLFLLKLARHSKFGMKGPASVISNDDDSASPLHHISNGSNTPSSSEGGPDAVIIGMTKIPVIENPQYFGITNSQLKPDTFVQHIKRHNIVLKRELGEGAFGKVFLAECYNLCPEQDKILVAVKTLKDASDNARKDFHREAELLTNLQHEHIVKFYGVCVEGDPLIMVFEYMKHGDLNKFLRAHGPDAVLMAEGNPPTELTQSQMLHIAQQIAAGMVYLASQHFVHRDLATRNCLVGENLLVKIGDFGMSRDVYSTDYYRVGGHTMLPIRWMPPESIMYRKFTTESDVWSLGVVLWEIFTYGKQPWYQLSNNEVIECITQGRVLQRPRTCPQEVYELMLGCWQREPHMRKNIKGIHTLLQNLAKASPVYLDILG

Compound	inhibition [1]	inhibition [2]	inhibition [3]	IC50 [4]	inhibition [5]	inhibition [6]	inhibition [7]
Cc1cc(Nc2ncc(-c3nc4ccccc4s3)c(N[C@@H]3C[C@H](CO)[C@@H](O)[C@H]3O)n2)ccn1	Active	Active	Active	1 µM	Active	Active	Active
OC[C@H]1C[C@@H](Nc2nc(NC3CCCCC3)ncc2-c2nc3ccccc3s2)[C@H](O)[C@@H]1O	Active	Active	Active	3.01 µM	Active	Active	Active
CCCNc1nc(C)c(-c2nc3ccccc3s2)c(N[C@H]2CC[C@@H](CO)C2)n1 (racemic)	Active	Active	Active	> 20 µM	Active	Active	Active
Nc1nc(N[C@@H]2C[C@H](CO)[C@@H](O)[C@H]2O)c(-c2nc3ccccc3s2)c(C2CC2)n1	Active	Active	Active	> 20 µM	Active	Active	Active

Continued, values first:

inhibition [1]	inhibition [2]	inhibition [3]	IC50 [4]	inhibition [5]	inhibition [6]	inhibition [7]	Compound
Active	Active	Active	> 20 µM	Active	Active	Active	Nc1ncc(-c2ccccc2)c(N[C@@H]2C[C@H](CO)[C@@H](O)[C@H]2O)n1
Active	Active	Active	4.7 µM	Active	Active	Active	Nc1ncc(-c2nccs2)c(N[C@@H]2C[C@H](CO)[C@@H](O)[C@H]2O)n1
Active	Active	Active	0.403 µM	Active	Active	Active	OC[C@H]1C[C@@H](Nc2nc(NC3CCC3)ncc2-c2nc3ccccc3s2)[C@H](O)[C@@H]1O
Active	Active	Active	1.19 µM	Active	Active	Active	CCCNc1ncc(-c2nc3ccccc3s2)c(N[C@@H]2C[C@H](CO)[C@@H](O)[C@H]2O)n1
